Data on two compounds can be found in patent publication US7396847B2, “Oxazolidinone and/or isoxazoline as antibacterial agents” (AstraZeneca AB, priority 2001, dated 2008).

Data set [1] concerns Streptococcus pneumoniae. In words: MIC, agar-dilution on agar with 5% defibrinated horse blood, Streptococci. To be noted: 10^4 CFU/spot, 37° C., 5% carbon dioxide, 48 hours. It counts as cell-based. As for the experimental part:
(§1) The following results were obtained on a standard in-vitro test system. The activity is described in terms of the minimum inhibitory concentration (MIC) determined by the agar-dilution technique with an inoculum size of 10^4 CFU/spot. Typically, compounds are active in the range 0.01 to 256 μg/ml.
(§2) Streptococci and enterococci were tested on agar supplemented with 5% defibrinated horse blood, an inoculum of 10^4 CFU/spot and an incubation temperature of 37° C. in an atmosphere of 5% carbon dioxide for 48 hours—blood is required for the growth of some of the test organisms. Fastidious Gram negative organisms were tested in Mueller-Hinton broth, supplemented with hemin and NAD, grown aerobically for 24 hours at 37° C., and with an innoculum of 5×10^4 CFU/well.

The test system of data set [2] is Streptococcus pyogenes. The description is as above. Particulars: 10^4 CFU/spot, 37° C., 5% carbon dioxide, 48 hours. Format: cell-based. As for the experimental part:
as §1, §2

Data set [3] deals with Staphylococcus aureus MSQS (methicillin sensitive and quinolone sensitive). In words: MIC, agar-dilution, Staphylococci. Format: cell-based. Particulars: inoculum 10^4 CFU/spot, 37° C., 24 hours. The method, then: as §1
(§3) Staphylococci were tested on agar, using an inoculum of 10^4 CFU/spot and an incubation temperature of 37° C. for 24 hours—standard test conditions for the expression of methicillin resistance.

Data set [4] has as its system Staphylococcus aureus MRQR (methicillin resistant and quinolone resistant). In words: MIC, agar-dilution, Staphylococci. Format: cell-based. Particulars: inoculum 10^4 CFU/spot, 37° C., 24 hours. The method, then:
as §1, §3

Data set [5] deals with Haemophilus influenzae. In words: MIC, fastidious Gram negative organisms in Mueller-Hinton broth. Format: cell-based. Particulars: Mueller-Hinton broth with hemin and NAD, aerobic, 24 hours, 37° C., 5×10^4 CFU/well. The method, then: as §1, §2
Data set [6] relates to Moraxella catarrhalis. The data set is described as above. It counts as cell-based. Particulars: Mueller-Hinton broth with hemin and NAD, aerobic, 24 hours, 37° C., 5×10^4 CFU/well. As for the experimental part: as §1, §2

Molecules are shown by their SMILES. ≈ marks a conversion by molar mass, not a printed value.

Turning to `CC(=O)NC[C@H]1CN(c2ccc(-c3ccc(N4C[C@H](CNC(C)=O)OC4=O)s3)s2)C(=O)O1` [Example 62, N-{[(5S)-3-(5′-{5-[(Acetylamino)methyl]-2-oxo-1,3-oxazolidin-3-yl}-2,2′-bithien-5-yl)-2-oxo-1,3-oxazolidin-5-yl]methyl}acetamide], the melting point was 257 to 260 °C.

`CC(=O)NC[C@H]1CN(c2ccc(-c3ccc(N4C[C@H](CNC(C)=O)OC4=O)cc3F)c(F)c2)C(=O)O1` [Example 1, (5S,5′S)-N-(3-{4′-[5-(Acetylamino-methyl)-2-oxo-oxazolidin-3-yl]-2,2′-difluoro-biphenyl-4-yl}-2-oxo-oxazolidin-5-ylmethyl)-acetamide]: the MIC in data set [1] turned out to be 0.06 mg/L (≈ 0.119 µM); in data set [2], 0.13 mg/L (≈ 0.259 µM); in data set [3], 0.25 mg/L (≈ 0.498 µM); in data set [4], 0.5 mg/L (≈ 0.995 µM); in data set [5], 2 mg/L (≈ 3.98 µM); in data set [6], 0.5 mg/L (≈ 0.995 µM).
